The source of these data is article PMC9952374, “De Novo Design of Imidazopyridine-Tethered Pyrazolines That Target Phosphorylation of STAT3 in Human Breast Cancer Cells” (Bioengineering, 2023).

Broadly, the melting point is the temperature, or range, at which the solid turns liquid.

Series [1] relates to MCF-7 cells. Kind of series: Alamar Blue cell viability assay, MCF-7. It is filed as cell-based, human. The settings on record: MCF-7 cell viability. An excerpt:
(§1) The goal herein was to assess the ability of imidazopyridine-tethered pyrazolines to inhibit cell viability in mammary carcinoma cells (using the Alamar Blue assay), since pyridine-fused pyrazoles were previously shown to inhibit cell viability in various breast cancer cells. […] The low chemical stability of thio-urea-based compounds may account for the inactivity of most thiourea-conjugated pyrazolines (excluding 4g) against TNBC cells.
(§2) MCF-7 cells were procured from Procell Life Science and Technology Co. LTD, Wuhan, China. Human breast cancer T47D, BT474, and SK-BR-3 cells were obtained from American Type Culture Collection (Washington, DC, NW, USA). Cells (2000) were cultured in MEM or Leibovitz’s L-15 medium enriched with 2% FBS and maintained in a humidified atmosphere of 5% CO2 at 37 °C. A stock solution of DMSO-dissolved compounds was prepared, and this solution was diluted with culture medium as required. MCF-7 Cells (4 × 10^3) were cultured in 96-well plates for 12 h and then treated for 72 h with compounds at concentrations of […]. Using Alamar Blue, the compounds were evaluated for their inhibitory effects
Figure 2 Inhibitory effect of compounds 3f (A), 3e (B), 4g (C), and 3g (D) on the viability of MCF-7 cells. MCF-7 cells were treated with various concentrations of 2-pyrazolines for 72 h and the viability of cells was analyzed by Alamar Blue assays. The results are presented as mean ± S.E.M. of triplicate determinations.
(Resazurin is reduced to fluorescent resorufin, in cell work by metabolically active cells.)

Series [2] relates to T47D cells. Briefly: Alamar Blue cell viability assay, T47D. It is filed as cell-based, human. The settings on record: for IC50: Homo sapiens, T47D cell viability, Alamar Blue.
Source text: as §1, §2

The subject of series [3] is BT-474 cells. Briefly: Alamar Blue cell viability assay, BT-474. The class given is cell-based, human. As to conditions: for IC50: Homo sapiens, BT-474 cell viability, Alamar Blue.
Source text: as §1, §2

For series [4], the system named is SK-BR-3 cells. Briefly: Alamar Blue cell viability assay, SK-BR-3. The class given is cell-based, human. As to conditions: Homo sapiens, SK-BR-3 cell viability.
Source text: as §1, §2

Series [5] deals with MCF-10A cells. Briefly: Alamar Blue cell viability assay, normal MCF-10A. It is filed as cell-based. As to conditions: Homo sapiens, normal MCF-10A cell viability.
The test system of series [6] is TNBC cells. Briefly: Effect against TNBC cells. The class given is cell-based. As to conditions: in words.
Source text: as §1

In series [7] the test system is STAT3 phosphorylation in MCF-7 cells. Briefly: Western blot of STAT3 phosphorylation, MCF-7. It is filed as cell-based, human. As to the method:
(§3) Therefore, in vitro experiments were performed to evaluate the effect of compound 3f on the phosphorylation of STAT3 in MCF-7 and T47D cells, utilizing our laboratory protocol. For this purpose, Western blot analysis was performed after the treatment of MCF-7 and T47D cells with compound 3f (0, 1, 3, 5 μM) and using p-STAT3 (Tyr705), p-STAT3 (Ser727), and STAT3 antibodies for blotting.
(§4) As previously reported, whole-cell lysates from cells treated with compound 3f were prepared to detect protein expression and phosphorylation using a lysis buffer [Tris (20 mM, pH 7.4), NaCl (250 mM), EDTA (2 mM, pH 8.0), Triton X-100 (0.1%), aprotinin (0.01 mg/mL), leupeptin (0.005 mg/mL), phenylmethane sulfonyl fluoride (0.4 mM), and NaVO4 (4 mM)]. To remove insoluble material, lysates were centrifuged at 13,000 rpm for 15 min.
(§5) Equal protein concentrations of cell lysate were resolved on sodium dodecyl sulfate-polyacrylamide gel electrophoresis, followed by transfer to nitrocellulose membranes as reported previously. Incubation was carried out overnight at 4 °C with antibodies after treatment with 5% skim milk. Afterward, the membranes were washed, probed with HRP-conjugated secondary antibodies for 2 h, and then visualized using chemiluminescence.
(§6) Figure 3 The lead compound 3f decreases the phosphorylation of STAT3 in MCF-7 and T47D cells in a concentration (A) and time-dependent (B) manner. MCF-7 and T47D cells were treated with the indicated concentration of 3f for 4 h. MCF-7 and T47D cells were treated with 5 µM of compound for the indicated time intervals. Thereafter, equal amounts of lysates were analyzed by Western blot analysis using antibodies against p-STAT3(Tyr705), p-STAT3(Ser727), or STAT3. The expression of each protein was quantified. β-ACTIN was used as input control.

In series [8] the test system is STAT3 phosphorylation in T47D cells. Briefly: Western blot of STAT3 phosphorylation, T47D. The class given is cell-based, human. The method, then: as §3, §4, §5, §6
For series [9], the system named is nuclear translocation of STAT3 in MCF-7 cells. Kind of series: Immunocytochemistry of STAT3 nuclear translocation, MCF-7. The class given is cell-based, human. As to conditions: MCF-7, immunocytochemistry, 10 μM for 4 h (method) / 5 μM (Figure 10 legend). The method, then: (§7) Finally, we attempted to understand the effect of compound 3f on the blocking of pSTAT3 into nuclear functionally since pSTAT3 dimers could enter the nucleus to give transcription. For this purpose, we conducted an immunocytochemistry assay using MCF-7 and T47D cells. […] We also analyzed the distribution of phospho-STAT3 in the nucleus and cytoplasm using fluorescent-labeled antibodies.
(§8) As described earlier, STAT3 phosphorylation in cells was quantified. After compound 3f treatment (10 μM for 4 h), cells were fixed for 20 min with paraformaldehyde (4%). Thereafter, cells were treated with 0.2% Triton X-100 in phosphate-buffered saline for permeabilization, followed by blocking with 5% bovine serum albumin for 1 h. Then, the preparation was incubated overnight at 4 °C with a rabbit polyclonal anti-human STAT3 antibody (dilution, 1:100). […] The slides were mounted and analyzed under an Olympus FluoView FV1000 confocal microscope (Tokyo, Japan).
(§9) Figure 10 The nuclear localization of STAT3 in MCF-7 (A) and T47D (B) cells was inhibited by compound 3f. MCF-7 and T47D cells were treated with the compound 3f (5 μM), and then analyzed for intracellular distribution by immunocytochemistry. […] The fluorescence intensity of p-STAT3 and STAT3 was performed. […]

For series [10], the system named is nuclear translocation of STAT3 in T47D cells. Kind of series: Immunocytochemistry of STAT3 nuclear translocation, T47D. The class given is cell-based, human. As to conditions: 10 μM for 4 h (method) / 5 μM (Figure 10 legend). As to the method:
as §7, §8, §9

For series [11], the system named is breast cancer cells. Details: method as in PMID 33126089. The settings on record: read-out: IC50 anti-proliferation against breast cancer cells; cited from earlier work.
Series [12] relates to IL-6-induced STAT3 phosphorylation in patient-derived HGG cells. Details: method as in PMID 31361777. As to conditions: cited from earlier work.
Series [13] has as its system phospho-STAT3 in hepatocellular carcinoma cells. Further details: method as in PMID 30261753. The settings on record: cited from earlier work.
Setting [14] is: MCF-7, 5 µM, indicated time intervals.
Where [15] appears, read: T47D, 5 µM, indicated time intervals.

`Cc1ccc2nc(C)c(C3=NN(C(=O)CN4CCN(c5cccc(Cl)c5Cl)CC4)C(c4cccc([N+](=O)[O-])c4)C3)n2c1` (stereo not drawn) [Compound 3f, 2-(4-(2,3-Dichlorophenyl)piperazin-1-yl)-1-(3-(2,6-dimethylimidazo[1,2-a]pyridin-3-yl)-5-(3-nitrophenyl)-4,5-dihydro-1H-pyrazol-1-yl)ethanone] showed a melting point of 122 to 124 °C. Besides, the IC50 in series [1] (Homo sapiens, MCF7, 72 h) turned out to be 9.2 µM. In series [1] (72 h), this compound displayed an IC50 of 9.27 ± 0.97 µM. This compound also came in with an IC50 in [2] of 23.5 ± 1.25 µM. The “viability of T47D cells” value in series [2] (in words) is listed as “inhibited in a dose-dependent manner”. This compound also came in with an IC50 in [3] of 13.9 ± 1.32 µM. Also, the “viability of BT-474 cells” value in series [3] (in words) is “inhibited in a dose-dependent manner”. In addition, in [4], the IC50 is greater than 100 µM. For the same compound, the IC50 in [5] was greater than 100 µM. Further, the “effect against TNBC cells” value in series [6] is on record as “significant effect”. In series [7] (MCF-7, 0, 1, 3, 5 μM, 4 h), the “phosphorylation level of STAT3 at Ser727, dose dependence” value is “reduced the phosphorylation level”; the “phosphorylation level of STAT3 at Tyr705, dose dependence” value is “reduced the phosphorylation level”; the “total STAT3 protein expression” value was “without affecting the total STAT3 protein expression”. In series [7] (setting [14]), the “phosphorylation of STAT3 at Ser727, time dependence” value is “reduced the phosphorylation” and the “phosphorylation of STAT3 at Tyr705, time dependence” value is given as “reduced the phosphorylation”. Also, in [8] (T47D, 0, 1, 3, 5 μM, 4 h), the “phosphorylation level of STAT3 at Ser727, dose dependence” value is recorded as “reduced the phosphorylation level”; the “phosphorylation level of STAT3 at Tyr705, dose dependence” value is “reduced the phosphorylation level”; the “total STAT3 protein expression” value is on record as “without affecting the total STAT3 protein expression”. Also, in series [8] (setting [15]), the “phosphorylation of STAT3 at Ser727, time dependence” value is “reduced the phosphorylation” and the “phosphorylation of STAT3 at Tyr705, time dependence” value is given as “reduced the phosphorylation”. In series [9], the “nuclear translocation of STAT3” value was “inhibited the nuclear translocation” and the “nuclear translocation of pSTAT3” value is “block the nuclear translocation”. In [10], the “nuclear translocation of STAT3” value is reported as “inhibited the nuclear translocation” and the “nuclear translocation of pSTAT3” value is given as “block the nuclear translocation”.
On to `Cc1ccc2nc(C)c(C3=NN(C(=O)CN4CCN(c5ccc(F)c(F)c5)CC4)C(c4cccc([N+](=O)[O-])c4)C3)n2c1` (stereo not drawn) [Compound 3h, 2-(4-(3,4-Difluorophenyl)piperazin-1-yl)-1-(3-(2,6-dimethylimidazo[1,2-a]pyridin-3-yl)-5-(3-nitrophenyl)-4,5-dihydro-1H-pyrazol-1-yl)ethanone], for which the melting point fell in the range of 192 to 194 °C. The compound further had an IC50 in series [1] (Homo sapiens, MCF7, 72 h) of 19.6 ± 1.29 µM. In addition, the IC50 in [2] turned out to be 12.5 ± 1.01 µM. For the same compound, the IC50 in [3] was found to be 3.06 ± 0.32 µM. The IC50 in [4] stood at 38.8 ± 1.42 µM. Also, in series [5], the IC50 worked out at 6.27 ± 0.26 µM. In addition, the “effect against TNBC cells” value in [6] is “significant effect”.
In the case of `Cc1ccc2nc(C)c(C3=NN(C(=S)Nc4ccc([N+](=O)[O-])cc4)C(c4cccc([N+](=O)[O-])c4)C3)n2c1` (stereo not drawn) [Compound 4b, 3-(2,6-Dimethylimidazo[1,2-a]pyridin-3-yl)-5-(3-nitrophenyl)-N-(4-nitrophenyl)-4,5-dihydro-1H-pyrazole-1-carbothioamide], the melting point was in the range of 230 to 232 °C. In series [1] (Homo sapiens, MCF7, 72 h), this compound registered an IC50 of 65.4 ± 1.82 µM. This compound gave an IC50 in series [2] of 45.6 ± 1.43 µM. This compound also returned an IC50 in [3] of 7.26 ± 0.54 µM. In addition, the IC50 in series [4] was 69 ± 1.41 µM. The compound further had an IC50 in series [5] greater than 100 µM. The “effect against TNBC cells” value in series [6] was “significant effect”.
As for `Cc1ccc2nc(C)c(C3=NN(C(=S)Nc4cc(C(F)(F)F)cc(C(F)(F)F)c4)[C@@H](c4cccc([N+](=O)[O-])c4)C3)n2c1` [Compound 4g, N-(3,5-Bis(trifluoromethyl)phenyl)-3-(2,6-dimethylimidazo[1,2-a]pyridin-3-yl)-5-(3-nitrophenyl)-4,5-dihydro-1H-pyrazoline-1-carbothioamide], the melting point lay in the range of 230 to 232 °C. Moreover, in series [1] (Homo sapiens, MCF7, 72 h), the IC50 turned out to be 10.9 ± 1.01 µM. Besides, the IC50 in series [2] was greater than 100 µM. In [3], this compound yielded an IC50 greater than 100 µM. In series [4], this compound had an IC50 greater than 100 µM. In [5], this compound yielded an IC50 greater than 100 µM.
`COc1cc(Nc2cc(-c3ccnn3C)cc3cc(C(C)=O)oc23)cc(OC)c1` [Compound C6]: the IC50 in series [11] is 0.16 µM.
Regarding `CC(C)CCc1cc(-c2ccc(Br)cc2)n(-c2ccc(S(N)(=O)=O)cc2)n1` [MNS1-Leu], in series [12], the “Akt, STAT1, JAK2, or ERK1/2 phosphorylation” value is listed as “without adversely affecting” and the “IL-6-induced STAT3 phosphorylation” value is listed as “inhibited”.
With `COc1cc(-c2cc3ccccc3[nH]2)[nH]c1-c1nc2cc(Br)cnc2[nH]1` [compound 16], the “level of phospho-STAT3 and downstream signaling cascades” value in series [13] is reported as “reduce the level”.
